Laboratory results as given in US20240335420A1, “N-ACYLHYDRAZONE COMPOUNDS CAPABLE OF INHIBITING NAV 1.7 AND/OR NAV 1.8, PROCESSES FOR THE PREPARATION THEREOF, COMPOSITIONS, USES, METHODS FOR TREATMENT USING SAME AND KITS” (EUROFARMA LABORATÓRIOS S.A., priority 2021, published 2024).

What was measured:
[1] = target: human sodium channels Nav 1.7 (Homo sapiens (Human), UniProt Q15858); test: Automated whole-cell voltage-clamp (ScreenPatch 384P), Nav 1.7 sodium current, Protocol 1; format: cell-based; conditions: CHO cells expressing human Nav 1.7; for inhibition at 10 µM: Protocol 1, read-out: Nav1.7 percent of inhibition (IC50 value not available); for IC50: Protocol 1 (holding −90 mV, 0.1 Hz), room temperature, read-out: Nav1.7 IC50
Sequence of human sodium channels Nav 1.7 (Q15858 whole entry): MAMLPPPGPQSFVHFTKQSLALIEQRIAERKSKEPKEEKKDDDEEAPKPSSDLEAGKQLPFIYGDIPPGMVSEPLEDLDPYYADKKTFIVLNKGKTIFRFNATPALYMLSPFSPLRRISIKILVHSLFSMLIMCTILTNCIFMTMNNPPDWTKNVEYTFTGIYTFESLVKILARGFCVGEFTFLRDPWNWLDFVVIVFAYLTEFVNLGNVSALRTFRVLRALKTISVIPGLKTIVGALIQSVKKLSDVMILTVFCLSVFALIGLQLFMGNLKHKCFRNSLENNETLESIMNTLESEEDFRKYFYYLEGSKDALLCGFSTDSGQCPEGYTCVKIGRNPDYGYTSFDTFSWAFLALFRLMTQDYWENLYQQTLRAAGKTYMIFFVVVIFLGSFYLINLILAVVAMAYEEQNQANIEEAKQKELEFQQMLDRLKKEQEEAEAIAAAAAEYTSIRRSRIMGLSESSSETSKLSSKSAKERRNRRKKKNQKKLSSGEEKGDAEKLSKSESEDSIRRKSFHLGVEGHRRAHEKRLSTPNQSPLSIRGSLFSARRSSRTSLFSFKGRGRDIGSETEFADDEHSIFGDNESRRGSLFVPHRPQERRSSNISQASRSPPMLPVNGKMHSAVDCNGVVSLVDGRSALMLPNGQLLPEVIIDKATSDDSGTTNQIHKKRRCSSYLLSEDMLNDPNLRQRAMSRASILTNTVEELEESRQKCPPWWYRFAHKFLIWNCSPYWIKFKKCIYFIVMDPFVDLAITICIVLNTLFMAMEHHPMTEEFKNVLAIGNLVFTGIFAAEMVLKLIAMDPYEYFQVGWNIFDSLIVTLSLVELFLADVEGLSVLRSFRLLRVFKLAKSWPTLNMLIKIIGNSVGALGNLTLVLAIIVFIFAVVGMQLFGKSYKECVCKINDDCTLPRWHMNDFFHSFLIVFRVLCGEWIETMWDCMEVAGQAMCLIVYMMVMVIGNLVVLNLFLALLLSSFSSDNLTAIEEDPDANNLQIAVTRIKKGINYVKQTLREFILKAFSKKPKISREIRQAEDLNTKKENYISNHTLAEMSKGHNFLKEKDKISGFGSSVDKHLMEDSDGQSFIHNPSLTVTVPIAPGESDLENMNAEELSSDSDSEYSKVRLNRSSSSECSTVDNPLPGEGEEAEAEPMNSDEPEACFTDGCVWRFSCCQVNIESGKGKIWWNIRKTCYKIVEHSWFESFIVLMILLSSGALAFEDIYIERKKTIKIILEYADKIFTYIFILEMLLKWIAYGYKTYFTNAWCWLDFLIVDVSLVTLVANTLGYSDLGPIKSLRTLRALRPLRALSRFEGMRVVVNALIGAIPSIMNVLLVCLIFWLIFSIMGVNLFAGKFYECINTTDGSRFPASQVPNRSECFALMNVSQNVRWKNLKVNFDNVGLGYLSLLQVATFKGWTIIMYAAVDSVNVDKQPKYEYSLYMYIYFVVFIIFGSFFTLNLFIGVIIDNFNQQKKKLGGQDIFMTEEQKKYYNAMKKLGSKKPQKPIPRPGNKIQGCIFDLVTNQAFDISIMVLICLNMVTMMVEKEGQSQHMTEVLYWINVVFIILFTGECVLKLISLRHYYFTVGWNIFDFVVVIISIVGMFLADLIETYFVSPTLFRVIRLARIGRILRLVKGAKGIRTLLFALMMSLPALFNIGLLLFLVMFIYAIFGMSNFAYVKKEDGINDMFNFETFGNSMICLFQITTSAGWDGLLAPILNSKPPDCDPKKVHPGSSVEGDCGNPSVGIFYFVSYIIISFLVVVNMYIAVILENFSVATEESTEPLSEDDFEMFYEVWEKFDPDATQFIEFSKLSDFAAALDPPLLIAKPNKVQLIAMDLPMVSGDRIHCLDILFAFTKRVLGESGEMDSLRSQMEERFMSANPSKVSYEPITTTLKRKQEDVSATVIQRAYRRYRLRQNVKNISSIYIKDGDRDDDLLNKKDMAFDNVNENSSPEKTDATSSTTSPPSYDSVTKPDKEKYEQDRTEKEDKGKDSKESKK
Experimental: (§1) Biological assays were performed on Chinese hamster ovary (CHO) cells expressing the human sodium channels Nav 1.8 and Nav 1.7 stably.
(§2) The experimental voltage-clamp protocol using the whole cell configuration was established on the automated ScreenPatch® 384P platform (SP384PE, Nanion Technologies, Livingston, NJ) and recording of the results was performed with a Nanion 384-well Patch Clamp chip (NPC) (Nanion Technologies, Livingston, NJ).
(§3) Compounds of Formula (I), were diluted in eight concentrations in the extracellular solution composed of physiological saline, buffered with HEPES (mM): NaCl, 137; KCl, 4; CaCl2, 3.8; MgCl2, 1; HEPES, 10; Glucose, 10; pH 7.4. The […], 50; CsF, 90; MgCl2, 5; EGTA, 5; HEPES, 10; pH 7.2. The duration of exposure of each compound with the cells expressing Nav 1.7 or Nav 1.8 was at least five minutes and the assays were performed at room temperature.
(§4) The measurements of the sodium currents of Nav 1.8 and Nav 1.7 were obtained using the voltage protocols described below: • Protocol 1: A holding voltage of −90 mV was established followed by a voltage phase of 200 ms to −120 mV, followed by a voltage step of 10 mV for 1 second for Nav 1.8 or 0 mV for Nav 1.7, followed by a step of −100 mV for 20 ms, followed by a step of 20 ms for 10 mV for Nav 1.8 or 0 mV for Nav 1.7 (TP1A) before returning to the holding voltage of −90 mV. • Protocol 2: A holding voltage of −100 mV was established followed by an inactivation voltage step at −40 mV for 8 seconds, followed by a −100 mV step for […], followed by a 20 ms step for 10 mV for Nav 1.8 or 0 mV for Nav 1.7 (TP1A) before returning to the holding voltage of −100 mV.
(§5) Protocols were repeated at a frequency of 0.1 Hz (Protocol 1) or 0.05 Hz (Protocol 2) and current amplitude was quantified over the TP1A phase log. The variation in the peak amplitude of the current was evaluated according to the Formula described below, after exposure of the cells expressing the channels, at each concentration of the different compounds:
(§6) [formula] • where |TP1A, basal, and |TP1A, molecule represent the entry peaks of sodium currents into TP1A prior to exposure to the compound and in the presence of the compound, respectively.
(§7) The decrease in peak current amplitude, after exposure of the cells to the compounds, was used to calculate the percent relative blocking of the channels relative to the positive control according to the Formula below:
(§8) [formula] • where % V and % CP represent the averages of the values of current inhibition with a vehicle (DMSO) and positive controls, respectively. The sodium currents of the positive control were considered as 100%.
(§9) [formula] • where [Test] represents the concentration of the evaluated molecule, IC50 is the concentration of the compound that generates half of the maximum inhibition, N is the Hill's coefficient and % Block′ is the percentage of the sodium channel current (Nav 1.8 and Nav 1.7) inhibited at each concentration of the evaluated molecule. Data were obtained by non-linear least squares regression with XLfit for Excel (Microsoft, Redmond, WA).
(§10) Compounds were tested in at least one assay to obtain the IC50 value.

[2] = target: human sodium channels Nav 1.8 (Homo sapiens (Human), UniProt Q9Y5Y9); test: Automated whole-cell voltage-clamp (ScreenPatch 384P), Nav 1.8 sodium current, Protocol 1; format: cell-based; conditions: CHO cells expressing human Nav 1.8; for inhibition at 10 µM: Protocol 1, read-out: Nav1.8 percent of inhibition (IC50 value not available); for IC50: Protocol 1 (holding −90 mV, 0.1 Hz), room temperature, read-out: Nav1.8 IC50
Sequence of human sodium channels Nav 1.8 (Q9Y5Y9 whole entry): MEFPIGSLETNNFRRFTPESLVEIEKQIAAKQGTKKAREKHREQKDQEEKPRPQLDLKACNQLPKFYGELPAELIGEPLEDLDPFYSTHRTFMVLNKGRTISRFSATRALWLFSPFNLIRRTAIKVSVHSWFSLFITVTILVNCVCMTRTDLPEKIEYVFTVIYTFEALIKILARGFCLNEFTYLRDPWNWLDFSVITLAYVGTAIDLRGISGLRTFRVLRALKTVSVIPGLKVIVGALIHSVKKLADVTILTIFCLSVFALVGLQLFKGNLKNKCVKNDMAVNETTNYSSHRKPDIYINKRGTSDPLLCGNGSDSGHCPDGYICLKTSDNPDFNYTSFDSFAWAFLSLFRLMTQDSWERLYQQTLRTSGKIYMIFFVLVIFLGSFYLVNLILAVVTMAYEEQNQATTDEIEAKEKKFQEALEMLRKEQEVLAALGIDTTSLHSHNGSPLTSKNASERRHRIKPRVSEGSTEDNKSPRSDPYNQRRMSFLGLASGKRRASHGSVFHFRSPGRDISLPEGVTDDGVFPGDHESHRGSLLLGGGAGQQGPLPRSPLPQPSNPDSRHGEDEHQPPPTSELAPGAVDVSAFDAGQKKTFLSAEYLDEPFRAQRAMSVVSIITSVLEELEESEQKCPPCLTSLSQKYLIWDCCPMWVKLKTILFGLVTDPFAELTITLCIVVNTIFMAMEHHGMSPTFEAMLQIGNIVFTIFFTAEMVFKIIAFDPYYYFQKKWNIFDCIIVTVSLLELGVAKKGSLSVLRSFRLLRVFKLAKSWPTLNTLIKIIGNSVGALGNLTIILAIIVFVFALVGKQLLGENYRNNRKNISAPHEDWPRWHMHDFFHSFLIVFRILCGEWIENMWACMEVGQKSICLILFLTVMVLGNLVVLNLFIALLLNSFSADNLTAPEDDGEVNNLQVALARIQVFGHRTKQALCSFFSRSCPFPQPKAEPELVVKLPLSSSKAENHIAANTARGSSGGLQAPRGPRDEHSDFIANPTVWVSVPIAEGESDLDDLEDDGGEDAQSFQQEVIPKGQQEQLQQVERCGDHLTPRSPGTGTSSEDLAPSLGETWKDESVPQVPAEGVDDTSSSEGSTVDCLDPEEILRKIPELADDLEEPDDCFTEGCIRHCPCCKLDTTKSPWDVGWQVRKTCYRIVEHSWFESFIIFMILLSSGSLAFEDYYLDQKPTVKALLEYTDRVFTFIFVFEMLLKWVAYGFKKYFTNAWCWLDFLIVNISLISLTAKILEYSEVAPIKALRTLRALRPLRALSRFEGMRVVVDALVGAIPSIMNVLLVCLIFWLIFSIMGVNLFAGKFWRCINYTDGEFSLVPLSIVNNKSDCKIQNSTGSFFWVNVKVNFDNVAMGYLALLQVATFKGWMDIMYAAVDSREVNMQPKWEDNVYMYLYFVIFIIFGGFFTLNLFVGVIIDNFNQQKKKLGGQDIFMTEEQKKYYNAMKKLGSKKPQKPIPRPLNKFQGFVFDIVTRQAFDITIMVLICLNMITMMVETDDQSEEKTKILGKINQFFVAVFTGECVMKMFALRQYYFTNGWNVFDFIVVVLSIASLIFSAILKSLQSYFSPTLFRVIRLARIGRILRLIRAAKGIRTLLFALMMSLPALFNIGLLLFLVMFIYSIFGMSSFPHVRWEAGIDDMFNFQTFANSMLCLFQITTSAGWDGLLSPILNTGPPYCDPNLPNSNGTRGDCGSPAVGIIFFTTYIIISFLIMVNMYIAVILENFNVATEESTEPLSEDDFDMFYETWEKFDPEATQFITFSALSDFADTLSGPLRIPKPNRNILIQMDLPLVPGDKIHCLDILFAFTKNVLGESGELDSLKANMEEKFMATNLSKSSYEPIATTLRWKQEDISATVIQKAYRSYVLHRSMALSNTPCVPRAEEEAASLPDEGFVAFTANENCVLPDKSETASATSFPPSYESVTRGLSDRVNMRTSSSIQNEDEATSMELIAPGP
Experimental: as §1, §2, §3, §4, §5, §6, §7, §8, §9, §10

| inhibition at 10 µM [1] [%] | inhibition at 10 µM [2] [%] | IC50 [1] [µM] | IC50 [2] [µM] | SMILES |
| --- | --- | --- | --- | --- |
| < 10 | < 10 | – | – | COc1cc(/C=N/NC(=O)c2ccnc(-c3ccc(Cl)cc3)c2)cc(OC)c1 [Compound 20, (E)-2-(4-chlorophenyl)-N′-(3,5-dimethoxybenzylidene) isonicotinohydrazide] |
| < 10 | < 10 | – | – | COc1cc(/C=N/NC(=O)c2ccnc(-c3ccc(OC(F)(F)F)cc3)c2)cc(OC)c1 [Compound 21, (E)-N′-(3,5-dimethoxybenzylidene)-2-(4-(trifluoromethoxy)phenyl) isonicotinohydrazide] |
| – | – | > 10 | > 10 | CCOc1ccc(-c2cc(C(=O)N/N=C/c3cc(OC)cc(OC)c3)ccn2)cc1 [Compound 22, (E)-N′-(3,5-dimethoxybenzylidene)-2-(4-ethoxyphenyl) isonicotinohydrazide] |
| – | – | > 10 | > 10 | COc1cc(/C=N/NC(=O)c2ccnc(-c3ccc(OC(C)C)cc3)c2)cc(OC)c1 [Compound 23, (E)-N′-(3,5-dimethoxybenzylidene)-2-(4-isopropoxyphenyl) isonicotinohydrazide] |
| – | – | > 10 | > 10 | COc1ccc(-c2cncc(C(=O)N/N=C/c3cc(OC)cc(OC)c3)c2)cc1 [Compound 25, (E)-N′-(3,5-dimethoxybenzylidene)-5-(4-methoxyphenyl) nicotinohydrazide] |
| – | – | 3.5 | > 10 | CCCOc1ccc(-c2cncc(C(=O)N/N=C/c3cc(OC)cc(OC)c3)c2)cc1 [Compound 26, (E)-N′-(3,5-dimethoxybenzylidene)-5-(4-propoxyphenyl) nicotinohydrazide] |
| – | – | > 10 | > 10 | COc1ccc(-c2cc(C(=O)N/N=C/c3cc(OC)cc(OC)c3)ccn2)cc1 [Compound 29, (E)-N′-(3,5-dimethoxybenzylidene)-2-(4-methoxyphenyl) isonicotinohydrazide] |
| – | – | > 10 | > 10 | CCCOc1ccc(-c2cc(C(=O)N/N=C/c3cc(OC)cc(OC)c3)ccn2)cc1 [Compound 30, (E)-N′-(3,5-dimethoxybenzylidene)-2-(4-propoxyphenyl) isonicotinohydrazide] |
| – | – | > 10 | > 10 | COc1cc(/C=N/NC(=O)c2cc(-c3ccc(Cl)cc3)ccn2)cc(OC)c1 [Compound 42, (E)-4-(4-chlorophenyl)-N′-(3,5-dimethoxybenzylidene) picolinohydrazide] |
| – | – | > 10 | > 10 | CCOc1ccc(-c2ccnc(C(=O)N/N=C/c3cc(OC)cc(OC)c3)c2)cc1 [Compound 44, (E)-N′-(3,5-dimethoxybenzylidene)-4-(4-ethoxyphenyl) picolinohydrazide] |
| – | – | > 10 | > 10 | COc1cc(/C=N/NC(=O)c2cc(-c3ccc(OC(C)C)cc3)ccn2)cc(OC)c1 [Compound 46, (E)-N′-(3,5-dimethoxybenzylidene)-4-(4-isopropoxyphenyl) picolinohydrazide] |
| – | – | > 10 | > 10 | COc1cc(/C=N/NC(=O)c2cc(-c3ccc(OC(F)(F)F)cc3)ccn2)cc(OC)c1 [Compound 49, (E)-N′-(3,5-dimethoxybenzylidene)-4-(4-(trifluoromethoxy)phenyl) picolinohydrazide] |
| – | – | > 10 | > 10 | CCOc1ccc(-c2nccc(C(=O)N/N=C/c3cc(OC)cc(OC)c3)n2)cc1 [Compound 53, (E)-N′-(3,5-dimethoxybenzylidene)-2-(4-ethoxyphenyl)pyrimidine-4-carbohydrazide] |

Further lines, the compound ahead of its results:

| SMILES | inhibition at 10 µM [1] [%] | inhibition at 10 µM [2] [%] | IC50 [1] [µM] | IC50 [2] [µM] |
| --- | --- | --- | --- | --- |
| COc1cc(/C=N/NC(=O)c2cccc(-c3ccc(OC(C)C)cc3)n2)cc(OC)c1 [Compound 24, (E)-N′-(3,5-dimethoxybenzylidene)-6-(4-isopropoxyphenyl) picolinohydrazide] | – | – | 5.72 | 5.9 |
| CCCCOc1ccc(-c2cncc(C(=O)N/N=C/c3cc(OC)cc(OC)c3)c2)cc1 [Compound 27, (E)-5-(4-butoxyphenyl)-N′-(3,5-dimethoxybenzylidene) nicotinohydrazide] | – | – | > 10 | > 10 |
| COc1cc(/C=N/NC(=O)c2cncc(-c3ccc(OC4CCCC4)cc3)c2)cc(OC)c1 [Compound 28, (E)-5-(4-(cyclopentyloxy)phenyl)-N′-(3,5-dimethoxybenzylidene) nicotinohydrazide] | – | – | > 10 | > 10 |
| CCOc1ccc(-c2cccc(C(=O)N/N=C/c3ccccc3F)n2)cc1 [Compound 32, (E)-6-(4-ethoxyphenyl)-N′-(2-fluorobenzylidene) picolinohydrazide] | – | – | 1.04 | 1.36 |
| CCOc1ccc(-c2cccc(C(=O)N/N=C/c3ccccc3Cl)n2)cc1 [Compound 33, (E)-N′-(2-chlorobenzylidene)-6-(4-ethoxyphenyl) picolinohydrazide] | – | – | > 10 | > 10 |
| CCOc1ccc(-c2cccc(C(=O)N/N=C/c3c(Cl)cccc3Cl)n2)cc1 [Compound 34, (E)-N′-(2,6-dichlorobenzylidene)-6-(4-ethoxyphenyl) picolinohydrazide] | – | – | > 10 | > 10 |
| CCOc1ccc(-c2cccc(C(=O)N/N=C/c3c(F)cccc3Cl)n2)cc1 [Compound 35, (E)-N′-(2-chloro-6-fluorobenzylidene)-6-(4-ethoxyphenyl) picolinohydrazide] | – | – | > 10 | > 10 |
| CCOc1ccc(-c2cccc(C(=O)N/N=C/c3ccccc3OC)n2)cc1 [Compound 36, (E)-6-(4-ethoxyphenyl)-N′-(2-methoxybenzylidene) picolinohydrazide] | – | – | 7.06 | 8.43 |
| CCOc1ccc(-c2cccc(C(=O)N/N=C/c3cccnc3N3CCOCC3)n2)cc1 [Compound 37, (E)-6-(4-ethoxyphenyl)-N′-((2-morpholinopyridin-3-yl)methylene) picolinohydrazide] | – | – | 8.76 | > 10 |
| O=C(N/N=C/c1cccs1)c1cc(-c2ccc(Cl)cc2)ccn1 [Compound 43, (E)-4-(4-chlorophenyl)-N′-(thiophen-2-ylmethylene) picolinohydrazide] | – | – | > 10 | > 10 |
| CCOc1ccc(-c2ccnc(C(=O)N/N=C/c3cccs3)c2)cc1 [Compound 45, (E)-4-(4-ethoxyphenyl)-N′-(thiophen-2-ylmethylene) picolinohydrazide] | – | – | > 10 | > 10 |
| CC(C)Oc1ccc(-c2ccnc(C(=O)N/N=C/c3cccs3)c2)cc1 [Compound 47, (E)-4-(4-isopropoxyphenyl)-N′-(thiophen-2-ylmethylene) picolinohydrazide] | – | – | > 10 | > 10 |
| COc1cc(/C=N/NC(=O)c2cc(-c3ccc(OC4CCCC4)cc3)ccn2)cc(OC)c1 [Compound 48, (E)-4-(4-(cyclopentyloxy)phenyl)-N′-(3,5-dimethoxybenzylidene) picolinohydrazide] | – | – | > 10 | > 10 |
| O=C(N/N=C/c1cccs1)c1cc(-c2ccc(OC3CCCC3)cc2)ccn1 [Compound 50, (E)-4-(4-(cyclopentyloxy)phenyl)-N′-(thiophen-2-ylmethylene) picolinohydrazide] | – | – | > 10 | > 10 |
| O=C(N/N=C/c1cccs1)c1cc(-c2ccc(OC(F)(F)F)cc2)ccn1 [Compound 51, (E)-N′-(thiophen-2-ylmethylene)-4-(4-(trifluoromethoxy)phenyl) picolinohydrazide] | – | – | > 10 | > 10 |
| COc1cc(/C=N/NC(=O)c2ccnc(-c3ccc(Cl)cc3)n2)cc(OC)c1 [Compound 52, (E)-2-(4-chlorophenyl)-N′-(3,5-dimethoxybenzylidene)pyrimidine-4-carbohydrazide] | – | – | > 10 | > 10 |
